# Data: the NIST ThermoML archive (doi:10.1016/j.tca.2014.08.035)
# ± gives the expanded uncertainty stated by the source.
# Legend:
# [1] = DTA
# [2] = Molar enthalpy of transition or fusion; conditions: DSC
# [3] = Solid-liquid equilibrium temperature; conditions: 10000 kPa; Crystal 2; DTA
# [4] = molar enthalpy of transition or fusion; conditions: 640.05 K; Crystal 2; DSC
smiles,measurement,setting,value
O=S(=O)([O-])O.[NH4+] [ammonium acid sulfate],Normal melting temperature,[1]; Crystal,144.20 ± 0.5 °C
same,Molar enthalpy of transition or fusion,[2]; Crystal,3.51 ± 0.143 kcal/mol
N.NS(=O)(=O)O [ammonium sulfamate],Normal melting temperature,[1]; Crystal,132.90 ± 0.4 °C
same,Molar enthalpy of transition or fusion,[2]; Crystal,3.99 ± 0.143 kcal/mol
N.N.O=S(=O)(O)O [ammonium sulfate],Solid-liquid equilibrium temperature,[3],640.05 ± 0.8 K
same,molar enthalpy of transition or fusion,[4],0.669 ± 0.191 kcal/mol
same,Molar enthalpy of transition or fusion,[2]; Crystal 3,0.681 ± 0.43 kcal/mol
O=S(=O)([O-])O.O=S(=O)([O-])[O-].[NH4+].[NH4+].[NH4+] [triammonium hydrogen disulfate],Normal melting temperature,[1]; Crystal 1,229.00 ± 4 °C
same,Triple point temperature,[1]; Crystal 2,412.85 ± 0.5 K
same,Molar enthalpy of transition or fusion,[2]; Crystal 1,7.65 ± 1.91 kcal/mol
same,Molar enthalpy of transition or fusion,[2]; Crystal 2,0.645 ± 0.0717 kcal/mol
